Measured values from the supplement of paper PMC4977894.
± gives the standard deviation of the averaged measurements.

Tests used:
[1] = tested on: Homo sapiens (human subject panel, olfactory perception); assay: perceived odor familiarity rating (rating 0-100); higher = more familiar
Method in brief: (§1)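 Stimuli were molecules diluted in paraffin oil at high and low concentrations, with 1 mL of each sniffed in randomized order across ten visits of 100 stimuli. Participants were 55 healthy humans aged 18–50, excluding the six lowest performers. Subjects who smelled a stimulus moved a computerized slider away from its starting point of 50, and positions were rescaled to 0–100. Familiarity, intensity and pleasantness are each reported as an average over subjects.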

[2] = tested on: Homo sapiens (human subject panel, olfactory perception); assay: perceived odor pleasantness rating (rating 0-100); higher = more pleasant
Method in brief: as §1

[3] = tested on: Homo sapiens (human subject panel, olfactory perception); assay: perceived odor intensity rating (rating 0-100); higher = stronger perceived smell
Method in brief: as §1

[4] = odor dilution in paraffin oil: 1/1,000
[5] = odor dilution in paraffin oil: 1/100,000
[6] = odor dilution in paraffin oil: 1/10,000,000
[7] = odor dilution in paraffin oil: 1/10

Row | SMILES | perceived odor familiarity rating [1, 4] | perceived odor familiarity rating [1, 5] | perceived odor pleasantness rating [2, 4] | perceived odor pleasantness rating [2, 5] | perceived odor intensity rating [3, 4] | perceived odor intensity rating [3, 5] | perceived odor familiarity rating [1, 6] | perceived odor pleasantness rating [2, 6] | perceived odor intensity rating [3, 6] | perceived odor familiarity rating [1, 7] | perceived odor pleasantness rating [2, 7] | perceived odor intensity rating [3, 7]
1 | COc1ccccc1C=O [o-Anisaldehyde] | 45.8 ± 27 | 41.2 ± 27 | 32 ± 22 | 38 ± 22 | 70 ± 25 | 38.5 ± 27 | – | – | – | – | – | –
2 | Cc1ccccc1C=O [o-Tolualdehyde] | 58.9 ± 32 | 49.1 ± 31 | 52.7 ± 30 | 60.2 ± 24 | 78.1 ± 21 | 37.2 ± 31 | – | – | – | – | – | –
3 | Cc1ccccc1S [o-Toluenethiol] | – | 54.8 ± 28 | – | 24.8 ± 24 | – | 72.8 ± 24 | 36.9 ± 24 | 47.9 ± 18 | 30.2 ± 31 | – | – | –
4 | CCCCCCCC=O [octanal] | 50.5 ± 31 | 62.9 ± 29 | 33.1 ± 22 | 65 ± 25 | 66.7 ± 26 | 55 ± 28 | – | – | – | – | – | –
5 | CCCCCCCCO [octanol] | 51.7 ± 33 | 38.3 ± 26 | 49.9 ± 28 | 46.2 ± 24 | 65.6 ± 26 | 25 ± 27 | – | – | – | – | – | –
6 | COc1ccc(C=O)cc1 [p-Anisaldehyde] | 54.5 ± 30 | 49.2 ± 32 | 60 ± 25 | 69 ± 21 | 71.2 ± 22 | 45.9 ± 31 | – | – | – | – | – | –
7 | CC(=O)Oc1ccc(C)cc1 [p-Tolyl acetate] | 59.6 ± 28 | 46.8 ± 31 | 47 ± 26 | 29 ± 25 | 72.6 ± 19 | 60.9 ± 28 | – | – | – | – | – | –
8 | Cc1ccc(O)cc1 [p-cresol] | 55 ± 33 | 54.1 ± 31 | 32.3 ± 29 | 31.6 ± 26 | 79 ± 20 | 68 ± 30 | – | – | – | – | – | –
9 | Cc1ccc(C(C)C)cc1 [para-cymene] | 55.8 ± 32 | – | 47.4 ± 26 | – | 66.4 ± 28 | – | – | – | – | 54.7 ± 32 | 37 ± 28 | 83.7 ± 15
10 | CCCCCO [pentanol] | 46 ± 30 | 36.6 ± 28 | 23.9 ± 23 | 41.9 ± 26 | 68.4 ± 28 | 31.2 ± 32 | – | – | – | – | – | –
11 | CCCCCOC(C)=O [pentyl acetate] | 58.2 ± 33 | 45.2 ± 28 | 57.5 ± 32 | 57.6 ± 23 | 64.8 ± 30 | 42.6 ± 28 | – | – | – | – | – | –
12 | O=Cc1ccc2c(c1)OCO2 [piperonal] | 54.6 ± 30 | – | 72 ± 20 | – | 42.5 ± 29 | – | – | – | – | 64.5 ± 27 | 70.9 ± 23 | 69.3 ± 22
13 | CCCO [propanol] | 30.3 ± 21 | 48.1 ± 32 | 49.7 ± 20 | 50.1 ± 21 | 28.7 ± 28 | 26.8 ± 28 | – | – | – | – | – | –
14 | CCC(=O)O [propionic acid (replicate)] | – | 37.3 ± 30 | – | 38.7 ± 20 | – | 38.6 ± 32 | 44.1 ± 30 | 36.7 ± 25 | 7.72 ± 8.4 | – | – | –
15 | CCC(=O)O [propionic acid] | – | 35.3 ± 31 | – | 39.5 ± 25 | – | 34.4 ± 33 | 36.8 ± 25 | 45.2 ± 24 | 20.5 ± 27 | – | – | –
16 | CCCOC(C)=O [propyl acetate] | 55.1 ± 30 | 41.6 ± 28 | 43.5 ± 24 | 49 ± 20 | 43.8 ± 36 | 24.5 ± 26 | – | – | – | – | – | –
17 | CCCOC(=O)CCC [propyl butyrate] | 52.5 ± 27 | 39.4 ± 27 | 42.5 ± 27 | 33.6 ± 25 | 64.7 ± 27 | 36.7 ± 31 | – | – | – | – | – | –
18 | CCCSCCC [propyl sulfide] | – | 29.4 ± 28 | – | 44.5 ± 28 | – | 28.1 ± 31 | 34.7 ± 38 | 40.7 ± 25 | 11.6 ± 12 | – | – | –

Row | SMILES | perceived odor familiarity rating [1, 4] | perceived odor familiarity rating [1, 5] | perceived odor pleasantness rating [2, 4] | perceived odor pleasantness rating [2, 5] | perceived odor intensity rating [3, 4] | perceived odor intensity rating [3, 5] | perceived odor familiarity rating [1, 6] | perceived odor pleasantness rating [2, 6] | perceived odor intensity rating [3, 6] | perceived odor familiarity rating [1, 7] | perceived odor pleasantness rating [2, 7] | perceived odor intensity rating [3, 7]
19 | c1cnccn1 [pyrazine] | 35.4 ± 27 | 36.8 ± 28 | 44.8 ± 21 | 39.6 ± 24 | 18.9 ± 22 | 38.5 ± 32 | – | – | – | – | – | –
20 | c1ccncc1 [pyridine] | – | 33.7 ± 29 | – | 46.8 ± 24 | – | 21.5 ± 23 | 28 ± 28 | 54.2 ± 25 | 13 ± 21 | – | – | –
21 | O=Cc1ccccc1O [salicylaldehyde] | 51.7 ± 31 | 39.9 ± 28 | 30.6 ± 26 | 39.5 ± 23 | 77.9 ± 19 | 53.5 ± 28 | – | – | – | – | – | –
22 | CC(C)(C)O [tert-butanol] | 34.7 ± 29 | – | 58.8 ± 22 | – | 24.8 ± 30 | – | – | – | – | 47.5 ± 32 | 44.9 ± 24 | 56 ± 32
23 | Cc1ccc(C(C)C)c(O)c1 [thymol] | 55.8 ± 32 | 49.7 ± 29 | 41.8 ± 27 | 48.5 ± 24 | 71.1 ± 23 | 39.2 ± 30 | – | – | – | – | – | –
24 | C/C=C/C=C/CO [trans,trans-2,4-Hexadien-1-ol] | 45.1 ± 32 | 36.4 ± 30 | 48 ± 23 | 49.6 ± 23 | 45.5 ± 30 | 14.4 ± 18 | – | – | – | – | – | –
25 | C/C=C/C=C/COC(C)=O [trans,trans-2,4-Hexadienyl acetate (replicate)] | 30.6 ± 27 | – | 49.5 ± 25 | – | 23.5 ± 26 | – | – | – | – | 30.4 ± 25 | 47.6 ± 22 | 19.1 ± 20
26 | C/C=C/C=C/COC(C)=O [trans,trans-2,4-Hexadienyl acetate] | 35.5 ± 27 | – | 51.3 ± 24 | – | 22 ± 23 | – | – | – | – | 24.8 ± 27 | 39.4 ± 25 | 13.9 ± 24
27 | CCC/C=C/COC(C)=O [trans-2-Hexenyl acetate] | 52.4 ± 30 | 38.8 ± 26 | 41.2 ± 30 | 49 ± 24 | 64.3 ± 27 | 38.3 ± 30 | – | – | – | – | – | –
28 | CCCCC/C=C/CO [trans-2-Octen-1-ol] | 46.4 ± 32 | 31 ± 31 | 36.5 ± 28 | 50.8 ± 22 | 69.6 ± 26 | 27.6 ± 28 | – | – | – | – | – | –
29 | C/C=C/c1ccc(OC)cc1 [trans-Anethole] | 74 ± 26 | 40 ± 32 | 62.1 ± 26 | 51.3 ± 23 | 64.3 ± 28 | 30.8 ± 30 | – | – | – | – | – | –
30 | O=C(O)/C=C/c1ccccc1 [trans-Cinnamic acid] | 46.5 ± 32 | – | 28.4 ± 28 | – | 59.5 ± 30 | – | – | – | – | 51.5 ± 31 | 52.7 ± 30 | 72.3 ± 23
31 | CCC(=O)OC/C=C/c1ccccc1 [trans-Cinnamyl propionate] | 45.5 ± 29 | 36.7 ± 28 | 50.8 ± 23 | 46.9 ± 24 | 46.3 ± 30 | 23.7 ± 29 | – | – | – | – | – | –
32 | CCCCCCCCCCC=O [undecanal] | 47.9 ± 32 | 28.2 ± 25 | 36.2 ± 26 | 50 ± 21 | 68.2 ± 28 | 20.4 ± 26 | – | – | – | – | – | –
33 | CCCCCCCCCCC [undecane] | 35 ± 29 | – | 53.3 ± 23 | – | 21 ± 26 | – | – | – | – | 41.7 ± 32 | 32.3 ± 21 | 56.4 ± 31
34 | CCCCC=O [valeraldehyde] | – | 43.7 ± 26 | – | 43 ± 25 | – | 41.3 ± 30 | 38.9 ± 28 | 49.8 ± 26 | 18.8 ± 22 | – | – | –
35 | CCCCC(=O)O [valeric acid] | – | 31.6 ± 29 | – | 24.7 ± 22 | – | 47.2 ± 29 | 45.2 ± 34 | 37.5 ± 23 | 34.9 ± 32 | – | – | –
36 | COc1cc(C=O)ccc1O [vanillin] | 80.7 ± 21 | – | 84 ± 20 | – | 74.4 ± 22 | – | – | – | – | 82.6 ± 18 | 86.3 ± 15 | 72.1 ± 23
